From patent US20190255144A1, “SPECIFIC OLIGOPEPTIDES AS ANTI-ANGIOGENIC DRUGS” (NEURONAX, priority 2014, published 2019)
Several values for one entry are separate records, joined by “and”; a condition that tells them apart may be missing. Equal entries are not always repeated. Entries after “also recorded” stand apart in the source; their conditions may differ. Values belong to the substance of their own block, whether it stands above or below them.

How the values were obtained:
[1] = system: tumors obtained from U87-MG grafts on the CAM; assay: Experimental tumors from U87-MG grafts on the CAM: vascularization, Ki-67, vimentin; format: in vivo, chicken embryo; settings: for Tumor vascularization, density of the vessels that irrigate the tumor (in words): topical 250 μg/mL; for Quantification of the Ki-67 labeling, Center 1 / Quantification of the Ki-67 labeling, Center 2 / Quantification of the Ki-67 labeling, Edge 1 / Quantification of the Ki-67 labeling, Edge 2: treated 48 hours; for Quantification of the Ki-67 labeling, Center 1 / Quantification of the Ki-67 labeling, Center 2: tumor center; for Quantification of the Ki-67 labeling, Edge 1 / Quantification of the Ki-67 labeling, Edge 2: tumor edge
Method: To obtain a tumor, the U87-MG cells are inoculated at a rate of 200,000 cells in 75-cm^2 flasks in the presence of a basal medium. A volume that contains 4.10^6 cells is then sampled, and after centrifuging for 5 minutes with 311 g, the supernatant is eliminated, and the cells are resuspended in 20 μL of differential medium that is deposited in the center of a silicone ring that was previously applied on the CAM of an embryo at ED9. Once the grafting is done, the embryo is set out to incubate. At ED11, the tumors can be observed under a MZFL3 binocular (Leica, Paris, France). At this stage, the tumors are either treated topically (apical part of the tumor) by 30 μL of the oligopeptide according to the invention at 250 μg/mL or else by 30 μL of sterile distilled water up to stage ED13. The tumors are then sampled, and cryosections are produced to make possible immunohistochemical analyses. […] The macroscopic observations of tumors as well as the diffusion of fluorescein into the vessels are made with a fluorescence binocular (MZFL3, Leica, France).
A volume that contains 4.10^6 cells is then sampled and after centrifuging for 5 minutes with 300 g, the supernatant is eliminated, and the cells are resuspended in 20 μL of differential medium that is deposited in the center of a silicone ring that was previously applied on the CAM of an embryo at ED9. Once the grafting has been done, the embryo is set out to incubate.
At ED11, the tumors can be observed under a MZFL3 binocular (Leica, Paris, France), and it is possible to track the change in the tumor growth up to ED14.
The tumors that are developed on the CAM are observed on the chorioallantoic membrane using a MZFL3-type binocular (Leica, France) before being sampled.
The vascular endothelium of the vessels of a chicken is labeled using a lectin, SNA-1 (Sambuccus Nigra Agglutinin-1, Vector Laboratories), coupled to FITC (fluorescein isothiocyanate).
After 10 minutes of attachment with 200 μL of 4% PBS 1X-PFA at ambient temperature, the sections are incubated with a solution of 0.05% TBS 1X-Tween-0.1% Trypsin, pH 7.6, for 10 minutes. They are then washed 3 times in PBS 1X, and 100 μL of a dilution with 1/200th of the SNA-1 lectin in a solution of 0.05% TBS 1X-Tween with pH 7.6 is applied for 1 hour. After washing cycles (the last of which is carried out with distilled water), the slides are then mounted as described in the preceding paragraph and observed with a fluorescence microscope. Counts of vessels were made from photos with a magnification ×100 and in a marginal zone spreading 600 μm from the edge of the tumor. An ANOVA-type statistical test was then carried out to validate the relevance of the effect observed. The SNA-1 lectin specifically labels the chicken endothelial cells that constitute the vascular wall.
The tumors are attached in 4% PBS 1X-PFA (24 hours) and then dehydrated in absolute ethanol and then in pure toluene and next are enclosed and preserved in a paraffin block. 4-μm sections are made from a microtome and deposited on Superfrost plus slides, and then dried in an oven at 50° C. for one night.
To carry out the immunolabeling, the sections are dewaxed and then rehydrated by baths of decreasing concentrations of ethanol and then rinsed in PBS 1X.
So as to unmask the antigenic sites, the slides are incubated in a citrate buffer with pH 7 (200 μM of citric acid; 9.8 mmol of sodium citrate) and undergo a heating cycle (4×5 minutes at 750 W in the microwave). The endogenic peroxidases are inhibited by carrying out a 10-minute bath in methanol-5%H2O2. After 3 washing cycles, the saturation of PBS-3% BSA and then the incubation with the anti-Ki67 antibody are carried out. After rinsing with PBS 1X, an HRP-conjugated secondary antibody is applied for 1 hour at ambient temperature. […] A counter-staining is carried out in hematoxylin, and the sections are mounted in an aqueous solution before being observed with a Leica DMRX microscope.

U87-MG cells = assay: Proteome array of supernatants of U87-MG cells (proteins involved in angiogenesis); format: cell-based; settings: for DPPIV/CD 26, proteome array / Endoglin/CD105, proteome array / Endothelin-1 (ET-1), proteome array / IGFBP-1, proteome array / IGFBP-3, proteome array / IL-8/CXCL8, proteome array / MCP-1/CCL2, proteome array / NRG1-β1/HRG1-β1, proteome array / Pentraxin 3 (PTX3)/TSG-14, proteome array / Serpin E1/Pal-1, proteome array / TIMP-1, proteome array / TIMP-4, proteome array / TSP-1, proteome array / VEGF, proteome array / uPA, proteome array: supernatant of U87-MG after treatment
Description: (§1) FIGS. 2A to 2C represent analysis results of soluble factors that occur in angiogenesis: • Supernatants of U87-MG cells were studied by proteome array (FIGS. 2A and 2B) for the research of proteins involved in angiogenesis, in the presence of sterile water, TSP-1 and the oligopeptide according to the invention. The secretions of VEGFA via the U87-MG in the medium after treatments with sterile water, TSP-1 and the oligopeptide according to the invention, were metered by ELISA from supernatants (FIG. 2C).

[2] = system: secretions of VEGFA via the U87-MG; assay: ELISA metering of VEGF in the supernatant of U87-MG; format: cell-based; settings: for VEGF ELISA reading, Val1 / VEGF ELISA reading, Val2 / VEGF Mean / VEGF pg/mL1 / VEGF pg/mL2 / VEGF ELISA reading, Mean: supernatant of U87-MG (SN U87) after treatment; for VEGF ELISA reading, Mean: mean of Val1 and Val2
Description: as §1

[3] = system: genes in experimental tumors obtained from the CAM; assay: Quantitative analysis of the mRNA in experimental tumors obtained from CAM; format: in vivo, chicken; settings: for Mean RQ ANGPT1 / Mean RQ ANGPT2 / Mean RQ CD36 / Mean RQ FGF2 / Mean RQ ITGB1 / Mean RQ KDR / Mean RQ PDGFB / Mean RQ PDGFRB / Mean RQ PLAU / Mean RQ TEK / Mean RQ TIE-1 / Mean RQ TIMP1 / Mean RQ TIMP4 / Mean RQ VEGFA: CAM tumors, relative expression, control = 1, triplicate; for Increase of expression of genes coding for the receptors (ITGB1, PDGFRβ, KDR, TIE-1, TIE-2, CD36) in relation to the control: experimental tumors obtained from the CAM
Description: These receptors belong to the chicken species and are therefore found in the host vessels. […] Furthermore, the overexpression of ITGB1 at the same time as that of CD36 differentiates the peptide according to the invention (NX) from the TSP-1 (TSP).

[4] = U87-MG tumor on CAM, listed as TSP1

Increase of expression of genes coding for the receptors (ITGB1, PDGFRβ, KDR, TIE-1, TIE-2, CD36) in relation to the control [3]: 4 factor
Substance: —W—S-G-W—S—S—C—S—R—S—C-G- (WSGWSSCSRSCG; Oligopeptide derived from SCO-Spondin) [NX]
Time to disappearance of pinkish color (capillaries on the surface of the tumor) ([1]; CAM tumors 1 to 2 mm in diameter): ≤ 24 h
SNA-1 labeling of vessels on tumor sections ([1]; U87-MG tumor on CAM): the SNA-1 labeling disappears more specifically into the zone that is close to the surface of the tumor
Tumor vascularization, density of the vessels that irrigate the tumor (in words) ([1]; U87-MG tumor on CAM, listed as oligopeptide according to the invention): more effective than the TSP-1; also recorded: significant reduction in the density of the vessels that irrigate the tumor
Quantification of the Ki-67 labeling, Center 1 ([1]; U87-MG tumor on CAM): 355.5 and 369
Quantification of the Ki-67 labeling, Center 2 ([1]; U87-MG tumor on CAM): 383.5 and 370
Quantification of the Ki-67 labeling, Edge 1 ([1]; U87-MG tumor on CAM): 165 and 184
Quantification of the Ki-67 labeling, Edge 2 ([1]; U87-MG tumor on CAM): 172 and 153
Tumor cells expressing the vimentin ([1]; U87-MG tumor on CAM, vimentin/SNA-1 co-labeling): reduction in the number of differentiated tumor cells expressing the vimentin
Ki-67 labeling of tumor (in words) ([1]; tumors in the CAM model, peripheral zone): the peripheral zone does not express the Ki67 marker
MCP-1 secretion (in words) (U87-MG cells; medium of treated U87-MG cells): large increase in MCP-1
DPPIV/CD 26, proteome array (U87-MG cells): 0.08222
Endoglin/CD105, proteome array (U87-MG cells): 0
Endothelin-1 (ET-1), proteome array (U87-MG cells): 0.09418
IGFBP-1, proteome array (U87-MG cells): 1.165
IGFBP-3, proteome array (U87-MG cells): 0.1856
IL-8/CXCL8, proteome array (U87-MG cells): 1.698
MCP-1/CCL2, proteome array (U87-MG cells): 1.861
NRG1-β1/HRG1-β1, proteome array (U87-MG cells): 0.1465
Pentraxin 3 (PTX3)/TSG-14, proteome array (U87-MG cells): 0.6179
Serpin E1/Pal-1, proteome array (U87-MG cells): 0.8632
TIMP-1, proteome array (U87-MG cells): 3.888
TIMP-4, proteome array (U87-MG cells): 2.15
TSP-1, proteome array (U87-MG cells): 0.07983
VEGF, proteome array (U87-MG cells): 1.021
uPA, proteome array (U87-MG cells): 1.209
VEGF-A in the supernatant of U87-MG (in words) [2]: reduction in VEGF-A
VEGF ELISA reading, Val1 [2]: 0.333
VEGF ELISA reading, Val2 [2]: 0.266
VEGF Mean [2]: 287 pg/mL
VEGF pg/mL1 [2]: 342.8 pg/mL
VEGF pg/mL2 [2]: 231.2 pg/mL
VEGF ELISA reading, Mean [2]: 0.2995
Mean RQ ANGPT1 [3]: 0.8241
Mean RQ ANGPT2 [3]: 0.6787
Mean RQ CD36 [3]: 3.831
Mean RQ FGF2 [3]: 0.686
Mean RQ ITGB1 [3]: 4.07
Mean RQ KDR [3]: 4.207
Mean RQ PDGFB [3]: 2.104
Mean RQ PDGFRB [3]: 4.366
Mean RQ PLAU [3]: 1.151
Mean RQ TEK [3]: 4.539
Mean RQ TIE-1 [3]: 3.961
Mean RQ TIMP1 [3]: 1.237
Mean RQ TIMP4 [3]: 0.6552
Mean RQ VEGFA [3]: 1.298

Increase of expression of genes coding for the receptors (ITGB1, PDGFRβ, KDR, TIE-1, TIE-2, CD36) in relation to the control [3]: on a lesser scale
Substance: thrombospondin 1 [TSP, reference compound]
Tumor vascularization, density of the vessels that irrigate the tumor (in words) ([1]; U87-MG tumor on CAM): produces the same effects but to a lesser degree
Quantification of the Ki-67 labeling, Center 1 [1, 4]: 300 and 233
Quantification of the Ki-67 labeling, Center 2 [1, 4]: 292 and 350
Quantification of the Ki-67 labeling, Edge 1 [1, 4]: 227 and 286
Quantification of the Ki-67 labeling, Edge 2 [1, 4]: 314 and 228
IL-8 secretion (in words) (U87-MG cells; medium of treated U87-MG cells): significant increase in IL-8
DPPIV/CD 26, proteome array (U87-MG cells): 0
Endoglin/CD105, proteome array (U87-MG cells): 0.09236
Endothelin-1 (ET-1), proteome array (U87-MG cells): 0.0994
IGFBP-1, proteome array (U87-MG cells): 1.724
IGFBP-3, proteome array (U87-MG cells): 0.5713
IL-8/CXCL8, proteome array (U87-MG cells): 2.901
MCP-1/CCL2, proteome array (U87-MG cells): 0.1534
NRG1-β1/HRG1-β1, proteome array (U87-MG cells): 0
Pentraxin 3 (PTX3)/TSG-14, proteome array (U87-MG cells): 0.7118
Serpin E1/Pal-1, proteome array (U87-MG cells): 0.855
TIMP-1, proteome array (U87-MG cells): 4.593
TIMP-4, proteome array (U87-MG cells): 2.041
TSP-1, proteome array (U87-MG cells): 0.08481
VEGF, proteome array (U87-MG cells): 1.397
uPA, proteome array (U87-MG cells): 1.489
VEGF ELISA reading, Val1 [2]: 0.5
VEGF ELISA reading, Val2 [2]: 0.518
VEGF Mean [2]: 636.2 pg/mL
VEGF pg/mL1 [2]: 621.2 pg/mL
VEGF pg/mL2 [2]: 651.2 pg/mL
VEGF ELISA reading, Mean [2]: 0.509
Mean RQ ANGPT1 [3]: 0.5106
Mean RQ ANGPT2 [3]: 0.2678
Mean RQ CD36 [3]: 2.965
Mean RQ FGF2 [3]: 0.3429
Mean RQ ITGB1 [3]: 1.317
Mean RQ KDR [3]: 1.557
Mean RQ PDGFB [3]: 0.6327
Mean RQ PDGFRB [3]: 2.544
Mean RQ PLAU [3]: 1.491
Mean RQ TEK [3]: 1.385
Mean RQ TIE-1 [3]: 1.79
Mean RQ TIMP1 [3]: 0.4492
Mean RQ TIMP4 [3]: 0.6642
Mean RQ VEGFA [3]: 0.5392
